Measurements as given in ChEMBL document CHEMBL1201862, “PubChem BioAssay data set” (2004).
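Cells were grown in 96-well plates and exposed to each compound for 48 hours at five concentrations; endpoints were interpolated linearly between bracketing concentrations, or set to the highest concentration if not reached. GI50: concentration for 50% inhibition of growth.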 Active and inactive are the calls of the source. Cut-off read from the data, not from the text of the source: active = GI50 up to about 1.1 µM and inactive = higher. *1 amine or outer side, *2 acyl side, *3 side chain or, on linkers, in order; H or OH if unused. Where a SMILES comes first, the peptide text is derived from it. Bridges are numbered along the chain shown (N, C = ends). [ ]: non-standard residue; d: D form. The star is where a group is joined. ξ: configuration not given here. ξOrn(4,5-diOH) = O=C(C(CC(O)C(O)N[*:3])N[*:1])[*:2]; ξhTyr(βξ-OH,γξ-OH) = NC(C(=O)O)C(O)C(O)c1ccc(O)cc1; ξPro(3ξ-OH,4ξ-Me) = CC1CNC(C(=O)O)C1O; X55 = CCCCC/C=C/C/C=C\CCCCCCCC(=O)*; Hyp = O=C(O)[CH]1C[CH](O)CN1

Experiments:
Test in all cases: DTP human tumour cell line panel, 48 h
M14 = system: M14
RXF 393 = system: RXF 393
NCI-H23 = system: NCI-H23
SK-MEL-5 = system: SK-MEL-5
CCRF-CEM = system: CCRF-CEM
LOX IMVI = system: LOX IMVI
PC-3 = system: PC-3
MOLT-4 = system: MOLT-4
SNB-75 = system: SNB-75
NCI-H226 = system: NCI-H226
KM12 = system: KM12
SF-295 = system: SF-295
HL-60 = system: HL-60
EKVX = system: EKVX
OVCAR-8 = system: OVCAR-8
HCT-116 = system: HCT-116
HT-29 = system: HT-29
UO-31 = system: UO-31
U-251 = system: U-251
SR = system: SR

Structure (SMILES) | GI50 (M14) | GI50 (RXF 393) | GI50 (NCI-H23) | GI50 (SK-MEL-5) | GI50 (CCRF-CEM) | GI50 (LOX IMVI) | GI50 (PC-3) | GI50 (MOLT-4) | GI50 (SNB-75) | GI50 (NCI-H226) | GI50 (KM12) | GI50 (SF-295) | GI50 (HL-60) | GI50 (EKVX) | GI50 (OVCAR-8) | GI50 (HCT-116) | GI50 (HT-29) | GI50 (UO-31) | GI50 (U-251) | GI50 (SR)
CC(C)(C)c1ccc(NS(=O)(=O)c2ccc(N)cc2)cc1 | 20.5 µM (inactive) | 29.1 µM (inactive) | 26 µM (inactive) | 17.9 µM (inactive) | 16.3 µM (inactive) | 17.6 µM (inactive) | 28.5 µM (inactive) | 14.5 µM (inactive) | 30.8 µM (inactive) | 22.2 µM (inactive) | 36.6 µM (inactive) | 1.9 µM (inactive) | 18.1 µM (inactive) | 26.9 µM (inactive) | 27.5 µM (inactive) | 18 µM (inactive) | 19 µM (inactive) | 24.9 µM (inactive) | 19.3 µM (inactive) | 
COC(=O)c1c2c(cc3c1CC1(C3)Cc3cc4c(c(C(=O)OC)c3C1)CCCC4)CCCC2 | > 100 µM (inactive) | > 100 µM (inactive) | > 100 µM (inactive) | 53.3 µM (inactive) | 30.5 µM (inactive) | > 100 µM (inactive) | 3.94 µM (inactive) | 57.5 µM (inactive) |  | > 100 µM (inactive) | > 100 µM (inactive) | > 100 µM (inactive) | 24.2 µM (inactive) | > 100 µM (inactive) | > 100 µM (inactive) | > 100 µM (inactive) | > 100 µM (inactive) | 0.381 µM (active) | > 100 µM (inactive) | 
CN1CC2=C(N=C(S)NC2c2ccccc2)/C(=C/c2ccccc2)C1 (centres undefined) | 25.4 µM (inactive) |  | 56.2 µM (inactive) | 27.7 µM (inactive) | 31.1 µM (inactive) | 29.7 µM (inactive) | 15 µM (inactive) | 13 µM (inactive) | 48 µM (inactive) | > 100 µM (inactive) | 25.6 µM (inactive) | 17.9 µM (inactive) | > 10 µM (inactive) | 75.2 µM (inactive) | > 10 µM (inactive) | 13 µM (inactive) | 27 µM (inactive) | 60.5 µM (inactive) | 54.5 µM (inactive) | 30.4 µM (inactive)
O=C(c1ccccc1)C(C(=O)c1ccccc1)c1nc2ccccc2sc1=O | 15.8 µM (inactive) | > 25 µM (inactive) | 16.6 µM (inactive) | 15.6 µM (inactive) | 6.24 µM (inactive) | 9.68 µM (inactive) | 12.9 µM (inactive) | 8.09 µM (inactive) |  | 7.08 µM (inactive) | 12.6 µM (inactive) | 10.1 µM (inactive) | > 25 µM (inactive) | 16.1 µM (inactive) | 9.29 µM (inactive) | 12 µM (inactive) | 17 µM (inactive) | 10.4 µM (inactive) | 5.73 µM (inactive) | 
c1ccc2c(c1)SCCCS2 | > 100 µM (inactive) |  | > 100 µM (inactive) | > 100 µM (inactive) | > 100 µM (inactive) | > 100 µM (inactive) | > 100 µM (inactive) | > 100 µM (inactive) | > 100 µM (inactive) |  | > 100 µM (inactive) | > 100 µM (inactive) | > 100 µM (inactive) | > 100 µM (inactive) | > 100 µM (inactive) | > 100 µM (inactive) | > 100 µM (inactive) | > 100 µM (inactive) | > 100 µM (inactive) | > 100 µM (inactive)
Cc1nc2c(cc1C(=O)NN)c(=O)n(C)c(=O)n2C | > 100 µM (inactive) | > 100 µM (inactive) | > 100 µM (inactive) | > 100 µM (inactive) | > 100 µM (inactive) |  | > 100 µM (inactive) | > 100 µM (inactive) | > 100 µM (inactive) | > 100 µM (inactive) | > 100 µM (inactive) | > 100 µM (inactive) |  | > 100 µM (inactive) | > 100 µM (inactive) | > 100 µM (inactive) | > 100 µM (inactive) | > 100 µM (inactive) | > 100 µM (inactive) | 
CNc1cc(OCc2ccccc2)c(OC)cc1C(=O)N1CCC[C@H]1CO | > 100 µM (inactive) | > 100 µM (inactive) | > 100 µM (inactive) | > 100 µM (inactive) | 81.5 µM (inactive) | > 100 µM (inactive) | > 100 µM (inactive) | > 100 µM (inactive) | > 100 µM (inactive) | > 100 µM (inactive) | > 100 µM (inactive) | > 100 µM (inactive) | 44.1 µM (inactive) | > 100 µM (inactive) | > 100 µM (inactive) | > 100 µM (inactive) | > 100 µM (inactive) | 63.2 µM (inactive) | > 100 µM (inactive) | 
CC1=NN(c2ccccc2Cl)C2(C1)SCC(=O)N2c1nc2ccccc2s1 (centres undefined) | > 100 µM (inactive) | > 100 µM (inactive) | > 100 µM (inactive) | > 100 µM (inactive) |  | > 100 µM (inactive) | > 100 µM (inactive) |  | > 100 µM (inactive) | > 100 µM (inactive) | > 100 µM (inactive) | > 100 µM (inactive) |  | > 100 µM (inactive) | > 100 µM (inactive) | > 100 µM (inactive) | > 100 µM (inactive) | > 100 µM (inactive) | > 100 µM (inactive) | 
C=CCOCn1cc(C)c(=O)[nH]c1=O | > 100 µM (inactive) |  | > 100 µM (inactive) | > 100 µM (inactive) | > 100 µM (inactive) | > 100 µM (inactive) | > 100 µM (inactive) | > 100 µM (inactive) | > 100 µM (inactive) | > 100 µM (inactive) | > 100 µM (inactive) | > 100 µM (inactive) | > 100 µM (inactive) | > 100 µM (inactive) | > 100 µM (inactive) | > 100 µM (inactive) | > 100 µM (inactive) | > 100 µM (inactive) |  | > 100 µM (inactive)
COc1ccc(NC(C)c2ccncc2)cc1 (centres undefined) | > 100 µM (inactive) | > 100 µM (inactive) | > 100 µM (inactive) | > 100 µM (inactive) | > 100 µM (inactive) | > 100 µM (inactive) | > 100 µM (inactive) | > 100 µM (inactive) | > 100 µM (inactive) | > 100 µM (inactive) | > 100 µM (inactive) | > 100 µM (inactive) |  | > 100 µM (inactive) | > 100 µM (inactive) | > 100 µM (inactive) | > 100 µM (inactive) | > 100 µM (inactive) | > 100 µM (inactive) | 
C=C1C(=O)OC2CC(=C)C3CC=C(C)C3CC12 (centres undefined) | 18 µM (inactive) |  |  | 27 µM (inactive) | 8.24 µM (inactive) | 11.1 µM (inactive) | 14.9 µM (inactive) | 17.3 µM (inactive) |  | 15.6 µM (inactive) | 41.1 µM (inactive) | 32.4 µM (inactive) | 18.3 µM (inactive) | 64.6 µM (inactive) | 35.9 µM (inactive) | 18.4 µM (inactive) | 13 µM (inactive) | 15.9 µM (inactive) | 15.3 µM (inactive) | 18.1 µM (inactive)
Cn1c(N=[N+]=[N-])cc(=O)n(C)c1=O | > 100 µM (inactive) | > 100 µM (inactive) | > 100 µM (inactive) | > 100 µM (inactive) | > 100 µM (inactive) | > 100 µM (inactive) | > 100 µM (inactive) | > 100 µM (inactive) |  | > 100 µM (inactive) | > 100 µM (inactive) | > 100 µM (inactive) |  | > 100 µM (inactive) | > 100 µM (inactive) | > 100 µM (inactive) | > 100 µM (inactive) | > 100 µM (inactive) | > 100 µM (inactive) | > 100 µM (inactive)
O=C(NC(=S)Nc1ccc([N+](=O)[O-])cc1)c1ccc2c(c1)Sc1ccccc1O2 | > 100 µM (inactive) |  | > 100 µM (inactive) | > 100 µM (inactive) | > 100 µM (inactive) | > 100 µM (inactive) | > 100 µM (inactive) | > 100 µM (inactive) | 13.8 µM (inactive) | > 100 µM (inactive) | > 100 µM (inactive) | 89.1 µM (inactive) | > 100 µM (inactive) |  | > 100 µM (inactive) | > 100 µM (inactive) | > 100 µM (inactive) | > 100 µM (inactive) | 37 µM (inactive) | > 100 µM (inactive)
C[C@@H]1CCC2[C@@H](C)C(=O)O[C@@H]3C4C[C@@H]1[C@@]23OO[C@@]4(C)O (some centres undefined) | > 100 µM (inactive) | 60.3 µM (inactive) | 88.5 µM (inactive) | 2.81 µM (inactive) | 54.5 µM (inactive) | 23.1 µM (inactive) | > 100 µM (inactive) | 72.1 µM (inactive) | 75.5 µM (inactive) |  | > 100 µM (inactive) | > 100 µM (inactive) |  | 57.7 µM (inactive) | 82.8 µM (inactive) | 88.3 µM (inactive) | > 100 µM (inactive) | 27.9 µM (inactive) | 48.8 µM (inactive) | > 100 µM (inactive)
CCCCC/C=C/C/C=C\CCCCCCCC(=O)NC1CC(O)C(O)NC(=O)C2C(O)C(C)CN2C(=O)C(C(C)O)NC(=O)C(C(O)C(O)c2ccc(O)cc2)NC(=O)C2CC(O)CN2C(=O)C(C(C)O)NC1=O (stereo not drawn) (X55-[ξOrn(4,5-diOH)]T[Hyp][ξhTyr(βξ-OH,γξ-OH)]T[ξPro(3ξ-OH,4ξ-Me)]; lactam 1-C; configuration not given here) | > 100 µM (inactive) |  | > 100 µM (inactive) | > 100 µM (inactive) | > 100 µM (inactive) | > 100 µM (inactive) | > 100 µM (inactive) | > 100 µM (inactive) | > 100 µM (inactive) |  | > 100 µM (inactive) | > 100 µM (inactive) | > 100 µM (inactive) | > 100 µM (inactive) | > 100 µM (inactive) | > 100 µM (inactive) | > 100 µM (inactive) | > 100 µM (inactive) | > 100 µM (inactive) | > 100 µM (inactive)
